Test: Acute toxicity, single oral administration
Format: in vivo, Rats (Sprague Dawley strain)
Conditions: for Mortality, Days after treatment 1 / Mortality, Days after treatment 2 / Mortality, Days after treatment 3 / Mortality, Days after treatment 4 / Mortality, Days after treatment 5 / Mortality, Days after treatment 6 / Mortality, Days after treatment 7 / Mortality, Days after treatment 8 / Mortality, Days after treatment 9 / Mortality, Days after treatment 10 / Mortality, Days after treatment 11 / Mortality, Days after treatment 12 / Mortality, Days after treatment 13 / Mortality, Days after treatment 14 / Mortality, Hours after treatment 1 / Mortality, Hours after treatment 2 / Mortality, Hours after treatment 3 / Mortality, Hours after treatment 4 / Mortality, Hours after treatment 5 / Mortality, Hours after treatment 6 / Final mortality / Final mortality (dead/total): male
Method: The acute toxicity of oral administration of HD-2 was evaluated according to toxicity assessment criteria described in Article 96-8 of Notice on Food and Drug Safety (Apr. 16, 1994). Rats (Sprague Dawley strain) were used for animal experiments. Dosage of a single, oral administration ranged from 0.4 to 1.25 g/kg body weight in male rats and 0.4 to […] body weight in female rats. General conditions of the animals, toxic symptoms, and mortality were measured every hour for the initial 6 hours following the single administration and once a day afterwards for 14 days. Body weights were measured before starting the study, 7 days after the administration, and at autopsy. Expired rats were studied to find the cause of death at autopsy. […] Some rats manifesting these clinical symptoms expired, but others recovered to normal condition within 2 to 3 days of clinical symptoms.

O1[As]2O[As]3O[As]1O[As](O2)O3 [HD-2, arsenic hexoxide (As4O6)]
Mortality, Days after treatment 1 (0.4 g/kg B.W. oral): 0
Mortality, Days after treatment 2 (0.4 g/kg B.W. oral): 0
Mortality, Days after treatment 3 (0.4 g/kg B.W. oral): 0
Mortality, Days after treatment 4 (0.4 g/kg B.W. oral): 0
Mortality, Days after treatment 5 (0.4 g/kg B.W. oral): 0
Mortality, Days after treatment 6 (0.4 g/kg B.W. oral): 0
Mortality, Days after treatment 7 (0.4 g/kg B.W. oral): 0
Mortality, Days after treatment 8 (0.4 g/kg B.W. oral): 0
Mortality, Days after treatment 9 (0.4 g/kg B.W. oral): 0
Mortality, Days after treatment 10 (0.4 g/kg B.W. oral): 0
Mortality, Days after treatment 11 (0.4 g/kg B.W. oral): 0
Mortality, Days after treatment 12 (0.4 g/kg B.W. oral): 0
Mortality, Days after treatment 13 (0.4 g/kg B.W. oral): 0
Mortality, Days after treatment 14 (0.4 g/kg B.W. oral): 0
Mortality, Hours after treatment 1 (0.4 g/kg B.W. oral): 0
Mortality, Hours after treatment 2 (0.4 g/kg B.W. oral): 0
Mortality, Hours after treatment 3 (0.4 g/kg B.W. oral): 0
Mortality, Hours after treatment 4 (0.4 g/kg B.W. oral): 0
Mortality, Hours after treatment 5 (0.4 g/kg B.W. oral): 0
Mortality, Hours after treatment 6 (0.4 g/kg B.W. oral): 0
Final mortality (0.4 g/kg B.W. oral, 14 days): 0%
Final mortality (dead/total) (0.4 g/kg B.W. oral, 14 days): 0/5
Mortality, Days after treatment 1 (0.6 g/kg B.W. oral): 0
Mortality, Days after treatment 2 (0.6 g/kg B.W. oral): 0
Mortality, Days after treatment 3 (0.6 g/kg B.W. oral): 0
Mortality, Days after treatment 4 (0.6 g/kg B.W. oral): 0
Mortality, Days after treatment 5 (0.6 g/kg B.W. oral): 0
Mortality, Days after treatment 6 (0.6 g/kg B.W. oral): 0
Mortality, Days after treatment 7 (0.6 g/kg B.W. oral): 0
Mortality, Days after treatment 8 (0.6 g/kg B.W. oral): 0
Mortality, Days after treatment 9 (0.6 g/kg B.W. oral): 0
Mortality, Days after treatment 10 (0.6 g/kg B.W. oral): 0
Mortality, Days after treatment 11 (0.6 g/kg B.W. oral): 0
Mortality, Days after treatment 12 (0.6 g/kg B.W. oral): 0
Mortality, Days after treatment 13 (0.6 g/kg B.W. oral): 0
Mortality, Days after treatment 14 (0.6 g/kg B.W. oral): 0
Mortality, Hours after treatment 1 (0.6 g/kg B.W. oral): 0
Mortality, Hours after treatment 2 (0.6 g/kg B.W. oral): 0
Mortality, Hours after treatment 3 (0.6 g/kg B.W. oral): 0
Mortality, Hours after treatment 4 (0.6 g/kg B.W. oral): 0
Mortality, Hours after treatment 5 (0.6 g/kg B.W. oral): 0
Mortality, Hours after treatment 6 (0.6 g/kg B.W. oral): 0
Final mortality (0.6 g/kg B.W. oral, 14 days): 0%
Final mortality (dead/total) (0.6 g/kg B.W. oral, 14 days): 0/5
Mortality, Days after treatment 1 (0.8 g/kg B.W. oral): 1
Mortality, Days after treatment 2 (0.8 g/kg B.W. oral): 1
Mortality, Days after treatment 3 (0.8 g/kg B.W. oral): 0
Mortality, Days after treatment 4 (0.8 g/kg B.W. oral): 0
Mortality, Days after treatment 5 (0.8 g/kg B.W. oral): 0
Mortality, Days after treatment 6 (0.8 g/kg B.W. oral): 0
Mortality, Days after treatment 7 (0.8 g/kg B.W. oral): 0
Mortality, Days after treatment 8 (0.8 g/kg B.W. oral): 0
Mortality, Days after treatment 9 (0.8 g/kg B.W. oral): 0
Mortality, Days after treatment 10 (0.8 g/kg B.W. oral): 0
Mortality, Days after treatment 11 (0.8 g/kg B.W. oral): 0
Mortality, Days after treatment 12 (0.8 g/kg B.W. oral): 0
Mortality, Days after treatment 13 (0.8 g/kg B.W. oral): 0
Mortality, Days after treatment 14 (0.8 g/kg B.W. oral): 0
Mortality, Hours after treatment 1 (0.8 g/kg B.W. oral): 0
Mortality, Hours after treatment 2 (0.8 g/kg B.W. oral): 0
Mortality, Hours after treatment 3 (0.8 g/kg B.W. oral): 0
Mortality, Hours after treatment 4 (0.8 g/kg B.W. oral): 0
Mortality, Hours after treatment 5 (0.8 g/kg B.W. oral): 0
Mortality, Hours after treatment 6 (0.8 g/kg B.W. oral): 0
Final mortality (0.8 g/kg B.W. oral, 14 days): 10%
Final mortality (dead/total) (0.8 g/kg B.W. oral, 14 days): 2/5
Mortality, Days after treatment 1 (0.85 g/kg B.W. oral): 2
Mortality, Days after treatment 2 (0.85 g/kg B.W. oral): 1
Mortality, Days after treatment 3 (0.85 g/kg B.W. oral): 0
Mortality, Days after treatment 4 (0.85 g/kg B.W. oral): 0
Mortality, Days after treatment 5 (0.85 g/kg B.W. oral): 0
Mortality, Days after treatment 6 (0.85 g/kg B.W. oral): 0
Mortality, Days after treatment 7 (0.85 g/kg B.W. oral): 0
Mortality, Days after treatment 8 (0.85 g/kg B.W. oral): 0
Mortality, Days after treatment 9 (0.85 g/kg B.W. oral): 0
Mortality, Days after treatment 10 (0.85 g/kg B.W. oral): 0
Mortality, Days after treatment 11 (0.85 g/kg B.W. oral): 0
Mortality, Days after treatment 12 (0.85 g/kg B.W. oral): 0
Mortality, Days after treatment 13 (0.85 g/kg B.W. oral): 0
Mortality, Days after treatment 14 (0.85 g/kg B.W. oral): 0
Mortality, Hours after treatment 1 (0.85 g/kg B.W. oral): 0
Mortality, Hours after treatment 2 (0.85 g/kg B.W. oral): 0
Mortality, Hours after treatment 3 (0.85 g/kg B.W. oral): 0
Mortality, Hours after treatment 4 (0.85 g/kg B.W. oral): 0
Mortality, Hours after treatment 5 (0.85 g/kg B.W. oral): 0
Mortality, Hours after treatment 6 (0.85 g/kg B.W. oral): 0
Final mortality (0.85 g/kg B.W. oral, 14 days): 60%
Final mortality (dead/total) (0.85 g/kg B.W. oral, 14 days): 3/5
Mortality, Days after treatment 1 (1.25 g/kg B.W. oral): 3
Mortality, Days after treatment 2 (1.25 g/kg B.W. oral): 1
Mortality, Days after treatment 3 (1.25 g/kg B.W. oral): 0
Mortality, Days after treatment 4 (1.25 g/kg B.W. oral): 0
Mortality, Days after treatment 5 (1.25 g/kg B.W. oral): 0
Mortality, Days after treatment 6 (1.25 g/kg B.W. oral): 0
Mortality, Days after treatment 7 (1.25 g/kg B.W. oral): 0
Mortality, Days after treatment 8 (1.25 g/kg B.W. oral): 0
Mortality, Days after treatment 9 (1.25 g/kg B.W. oral): 0
Mortality, Days after treatment 10 (1.25 g/kg B.W. oral): 0
Mortality, Days after treatment 11 (1.25 g/kg B.W. oral): 0
Mortality, Days after treatment 12 (1.25 g/kg B.W. oral): 0
Mortality, Days after treatment 13 (1.25 g/kg B.W. oral): 0
Mortality, Days after treatment 14 (1.25 g/kg B.W. oral): 0
Mortality, Hours after treatment 1 (1.25 g/kg B.W. oral): 0
Mortality, Hours after treatment 2 (1.25 g/kg B.W. oral): 0
Mortality, Hours after treatment 3 (1.25 g/kg B.W. oral): 0
Mortality, Hours after treatment 4 (1.25 g/kg B.W. oral): 0
Mortality, Hours after treatment 5 (1.25 g/kg B.W. oral): 0
Mortality, Hours after treatment 6 (1.25 g/kg B.W. oral): 0
Final mortality (1.25 g/kg B.W. oral, 14 days): 100%
Final mortality (dead/total) (1.25 g/kg B.W. oral, 14 days): 5/5
side effect (rats, single administration of 500 mg/kg body weight per day): did not have any side effect
Autopsy findings of rats expired during the study period (single oral administration): expanded stomach and engorged liver
Autopsy findings of rats killed at the end of the study (single oral administration, 14 days): Significant findings related to HD-2 administration were not observed
Clinical symptoms (within 3 days of single oral administration): dose-dependent depression and dyspnea

From patent publication US7261906B2, “Anti-cancer therapy agent of arsenic hexoxide (As4O6) of a natural chemical substance and its pharmaceutical composition” (priority 1998, dated 2007)
